# Test results reported in patent US8697641B2, “4-amino-4-oxobutanoyl peptide cyclic analogues, inhibitors of viral replication” (Achillion Pharmaceuticals, Inc., priority 2008, dated 2014).
# System: Hepatitis C replicon
# Assay: HCV replicon assay (NPT ELISA readout) in Huh-7 replicon-containing cells
# Assay type: cell-based, Hepatitis C virus
# Settings: Hepatitis C virus, 72 h; HCV replicon in Huh-7 cells, three days incubation
# Outline: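 Replication is measured as neomycin phosphotransferase level by captured ELISA after three days of compound exposure (typically 10 to 0.03 μM, 6 concentrations) at 37 °C. Cells are Huh-7 harbouring an HCV replicon with neo gene and NS3-NS5B; interferon alpha is the positive control.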
row,SMILES,EC50 [nM]
1,"COc1ccc2c(O[C@@H]3C[C@H]4C(=O)N[C@]5(C(=O)NS(=O)(=O)C6CC6)C[C@H]5/C=C\CCCCC[C@H](CC(=O)N5CC[C@@H](N)C5)C(=O)N4C3)cc(-c3ccccc3)nc2c1 [Compound 106, (2R,6R,14aR,16aS, Z)-6-(2-((R)-3-aminopyrrolidin-1-yl)-2-oxoethyl)-N-(cyclopropylsulfonyl)-2-(7-methoxy-2-phenylquinolin-4-yloxy)-5,16-dioxo-1,2,3,5,6,7,8,9,10,11, 13a,14,14a,15,16,16a-hexadecahydrocyclopropa [e]pyrrolo[1,2-a][1,4] diazacyclopentadecine-14a-carboxamide]",< 1000
2,"COc1ccc2c(O[C@@H]3C[C@H]4C(=O)N[C@]5(C(=O)NS(=O)(=O)C6CC6)C[C@H]5/C=C\CCCCC[C@H](CC(=O)N5CCC(C(F)(F)F)CC5)C(=O)N4C3)cc(-c3ccccn3)nc2c1Cl [Compound 92, (2R,6R,14aR,16aS,Z)-2-(8-chloro-7-methoxy-2-(pyridin-2-yl)quinolin-4-yloxy)-N-(cyclopropylsulfonyl)-5,16-dioxo-6-(2-oxo-2-(4-(trifluoromethyl)piperidin-1-yl)ethyl)-1,2,3,5,6,7,8,9,10,11, 13a,14,14a,15,16,16a-hexadecahydrocyclopropa [e]pyrrolo[1,2-a][1,4] diazacyclopentadecine-14a-carboxamide]",< 1000
3,"COc1ccc2c(O[C@@H]3C[C@H]4C(=O)N[C@]5(C(=O)NS(=O)(=O)C6CC6)C[C@H]5/C=C\CCCCC[C@H](CC(=O)N5CC[C@@H](C(C)(C)N)C5)C(=O)N4C3)cc(-c3ccccc3)nc2c1 [Compound 107, (2R,6R,14aR,16aS, Z)-6-(2-((R)-3-(2-aminopropan-2-yl)pyrrolidin-1-yl)-2-oxoethyl)-N-(cyclopropylsulfonyl)-2-(7-methoxy-2-phenylquinolin-4-yloxy)-5,16-dioxo-1,2,3,5,6,7,8,9,10,11, 13a,14,14a,15,16,16a-hexadecahydrocyclopropa [e]pyrrolo[1,2-a][1,4] diazacyclopentadecine-14a-carboxamide]",< 1000
4,"COc1ccc2c(O[C@@H]3C[C@H]4C(=O)N[C@]5(C(=O)NS(=O)(=O)C6CC6)C[C@H]5/C=C\CCCCC[C@H](CC(=O)N5CCC(F)(F)C5)C(=O)N4C3)cc(-c3ccccn3)nc2c1Cl [Compound 94, (2R,6R,14aR,16aS,Z)-2-(8-chloro-7-methoxy-2-(pyridin-2-yl)quinolin-4-yloxy)-N-(cyclopropylsulfonyl)-6-(2-(3,3-difluoropyrrolidin-1-yl)-2-oxoethyl)-5,16-dioxo-1,2,3,5,6,7,8,9,10,11, 13a,14,14a,15,16,16a-hexadecahydrocyclopropa [e]pyrrolo[1,2-a][1,4] diazacyclopentadecine-14a-carboxamide]",< 1000
5,"COc1ccc2c(O[C@@H]3C[C@H]4C(=O)N[C@]5(C(=O)NS(=O)(=O)C6CC6)C[C@H]5/C=C\CCCCC[C@H](CC(=O)N5CCOCC5)C(=O)N4C3)cc(-c3ccccc3)nc2c1 [Compound 60, (2R,6R,13aS, 14aR,16aS,Z)-N-(cyclopropylsulfonyl)-2-(7-methoxy-2-phenylquinolin-4-yloxy)-6-(2-morpholino-2-oxoethyl)-5,16-dioxo-1,2,3,5,6,7,8,9,10,11, 13a,14,14a,15,16,16a-hexadecahydrocyclopropa [e]pyrrolo[1,2-a][1,4] diazacyclopentadecine-14a-carboxamide]",< 1000
6,"COc1ccc2c(O[C@@H]3C[C@H]4C(=O)N[C@]5(C(=O)NS(=O)(=O)C6CC6)C[C@H]5/C=C\CCCCC[C@H](CC(=O)O)C(=O)N4C3)cc(-c3ccccn3)nc2c1Cl [Compound 89, 2-((2R,6R,14aR, 16aS,Z)-2-(8-chloro-7-methoxy-2-(pyridin-2-yl)quinolin-4-yloxy)-14a-(cyclopropylsulfonyl-carbamoyl)-5,16-dioxo-1,2,3,5,6,7,8,9,10,11, 13a,14,14a,15,16,16a-hexadecahydrocyclopropa [e]pyrrolo[1,2-a][1,4]diazacyclopentadecin-6-yl)acetic acid]",< 1000
7,"COc1ccc2c(O[C@@H]3C[C@H]4C(=O)N[C@]5(C(=O)NS(=O)(=O)C6CC6)C[C@H]5/C=C\CCCCC[C@H](CC(=O)O)C(=O)N4C3)cc(-c3ccccc3)nc2c1 [Compound 59, 2-((2R,6R,13aS, 14aR,16aS,Z)-14a-(cyclopropylsulfonyl-carbamoyl)-2-(7-methoxy-2-phenylquinolin-4-yloxy)-5,16-dioxo-1,2,3,5,6,7,8,9,10,11, 13a,14,14a,15,16,16a-hexadecahydrocyclopropa [e]pyrrolo[1,2-a][1,4]diazacyclopentadecin-6-yl)acetic acid]",< 1000
8,"COc1ccc2c(O[C@@H]3C[C@H]4C(=O)NC5(C(=O)O)CC5/C=C\CCCCC[C@@H](CC(=O)N5CCCCC5)C(=O)N4C3)cc(-c3ccccc3)nc2c1 (stereo partly drawn) [Compound 43, (2R,6S,16aS,Z)-2-(7-methoxy-2-phenylquinolin-4-yloxy)-5,16-dioxo-6-(2-oxo-2-(piperidin-1-yl)ethyl)-1,2,3,5,6,7,8,9,10,11, 13a,14,14a,15,16,16a-hexadecahydrocyclopropa [e]pyrrolo[1,2-a][1,4] diazacyclopentadecine-14a-carboxylic acid]",1000 to 10000
9,"COc1ccc2c(O[C@@H]3C[C@H]4C(=O)N[C@]5(C(=O)NS(=O)(=O)C6CC6)C[C@H]5/C=C\CCCCC[C@H](CC(=O)N5CCC(C(F)(F)F)CC5)C(=O)N4C3)cc(-c3nc(C(C)C)cs3)nc2c1C [Compound 126, (2R,6R,14aR,16aS,Z)-N-(cyclopropylsulfonyl)-2-(2-(4-isopropylthiazol-2-yl)-7-methoxy-8-methylquinolin-4-yloxy)-5,16-dioxo-6-(2-oxo-2-(4-(trifluoromethyl)piperidin-1-yl)ethyl)-1,2,3,5,6,7,8,9,10,11, 13a,14,14a,15,16,16a-hexadecahydrocyclopropa [e]pyrrolo[1,2-a][1,4] diazacyclopentadecine-14a-carboxamide]",< 1000
10,"COc1ccc2c(O[C@@H]3C[C@H]4C(=O)N[C@]5(C(=O)NS(=O)(=O)C6CC6)C[C@H]5/C=C\CCCCC[C@H](CC(=O)N5CC[C@@H](CN)C5)C(=O)N4C3)cc(-c3ccccc3)nc2c1 [Compound 105, (2R,6R,14aR,16aS, Z)-6-(2-((S)-3-(aminomethyl)pyrrolidin-1-yl)-2-oxoethyl)-N-(cyclopropylsulfonyl)-2-(7-methoxy-2-phenylquinolin-4-yloxy)-5,16-dioxo-1,2,3,5,6,7,8,9,10,11, 13a,14,14a,15,16,16a-hexadecahydrocyclopropa [e]pyrrolo[1,2-a][1,4] diazacyclopentadecine-14a-carboxamide]",< 1000
11,"COc1ccc2c(O[C@@H]3C[C@H]4C(=O)N[C@]5(C(=O)NS(=O)(=O)C6CC6)C[C@H]5/C=C\CCCCC[C@H](CC(=O)N5CCCC(C)C5)C(=O)N4C3)cc(-c3ccccc3)nc2c1 (stereo partly drawn) [Compound 78, (2R,6R,13aS, 14aR,16aS,Z)-N-(cyclopropylsulfonyl)-2-(7-methoxy-2-phenylquinolin-4-yloxy)-6-(2-(3-methylpiperidin-1-yl)-2-oxoethyl)-5,16-dioxo-1,2,3,5,6,7,8,9,10,11, 13a,14,14a,15,16,16a-hexadecahydrocyclopropa [e]pyrrolo[1,2-a][1,4] diazacyclopentadecine-14a-carboxamide]",< 1000
